We go through 24 compounds from patent publication US20080032965A1, “Method for enhancing cognitive function” (priority 2006, published 2008).

One assay deals with D2 (Homo sapiens, UniProt P14416). As to conditions: read-out: Ki (nM) D2; Table 2; cited from earlier work.
For a further assay, the target named is T1, 5-HT1A (Homo sapiens, UniProt P08908).
T1 sequence (P08908 1-422): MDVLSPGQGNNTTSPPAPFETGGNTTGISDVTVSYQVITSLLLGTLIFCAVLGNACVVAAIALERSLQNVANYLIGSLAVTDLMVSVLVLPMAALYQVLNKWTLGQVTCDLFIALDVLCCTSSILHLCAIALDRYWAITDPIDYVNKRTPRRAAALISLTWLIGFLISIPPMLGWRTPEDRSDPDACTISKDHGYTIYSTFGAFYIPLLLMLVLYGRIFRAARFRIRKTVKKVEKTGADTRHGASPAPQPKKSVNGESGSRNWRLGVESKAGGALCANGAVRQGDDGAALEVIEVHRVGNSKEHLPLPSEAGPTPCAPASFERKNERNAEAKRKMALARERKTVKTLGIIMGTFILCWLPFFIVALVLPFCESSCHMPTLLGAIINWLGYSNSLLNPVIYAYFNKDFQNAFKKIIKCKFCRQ

A further assay deals with a1. Particulars: Table 2; cited from earlier work.
For assay [1], the system named is recognition memory. The experiment in a line: Novel Object Recognition Model (Example 1). As to conditions: for effect on the cognitive enhancing properties of Aricept in the Novel Object Recognition Model: co-administered with Aricept, lowers dose of both agents required for efficacy. It counts as in vivo, rats. Here is the method: (§1) Novel Object Recognition Model: Male Long-Evans hooded rats (˜200 g at the time of testing) were individually housed with ad libitum access to food and water. Novel object recognition (NOR) training and testing was performed in a circular field (diameter ˜70 cm, 30 cm high) constructed out of plastic and containing soiled bedding (without feces). The field was surrounded by black curtains to mask extra-field cues and was located in a dimly lit room (˜10 lux at the level of the area) in the presence of white noise (˜65 dB). Animal performance was tracked by video and monitored by an experimenter located outside of the testing room. Objects, constructed with Duplo® blocks (Lego), could be affixed to the floor in one of four locations spaced evenly around the field approximately 10 cm from the field's edge. To avoid possible olfactory cues, multiple copies of the objects were used throughout the study and were cleaned with a 30% ethanol solution between animals.
The visual recognition task was divided into 3 sessions—habituation, a sample trial and a choice trial. During habituation the animals were placed into the field containing 2 identical yellow cubes (˜10 cm×10 cm×10 cm) and were allowed to explore the field for ten minutes. Following habituation, rats were returned to their home cage. One day after habituation, animals were dosed with drug (either a 5-HT1A antagonist compound, a cognitive enhancer or both a 5-HT1A antagonist compound and a cognitive enhancer) and following the pretreatment interval the sample trial was initiated. […] The amount of time investigating the objects was recorded for the entire trial. […]
(§2) The effect of treatment on object exploration during trial one was examined using a one-way ANOVA on total contact time followed by Fisher's LSD group mean pair-wise comparisons. The amount of time exploring the novel and familiar objects across treatment groups was analyzed using a repeated measures ANOVA followed by Fisher's LSD post-hoc comparisons. […]

The test system of assay [2] is recognition memory. The experiment in a line: Novel Object Recognition, Compound 405 with Aricept (Example 2). The class given is in vivo, mice. Particulars: compared between vehicle, Aricept 0.5 mg/kg, Compound 405 0.3 mg/kg and combination groups. The method, then: as §1, with “Objects, constructed with Duplo® blocks (Lego), could be affixed to the floor in one of four locations spaced evenly around the field approximately 10 cm from the field's edge. To avoid possible olfactory cues, multiple copies of the objects were used throughout the study and were cleaned with a 30% ethanol solution between animals.” left out
The visual recognition task was divided into 3 sessions—habituation, a sample trial and a choice trial. […] The amount of time investigating the objects was recorded for the entire trial. […]
as §2
Cognitive enhancement was measured using the Novel Object Recognition procedure described in Example 1. […]

For another assay, the target named is 5-HT2A (Homo sapiens, UniProt P28223). Particulars: read-out: Ki (nM) 5-HT2A; Table 1; cited from earlier work.
Sequence of 5-HT2A (P28223 whole entry): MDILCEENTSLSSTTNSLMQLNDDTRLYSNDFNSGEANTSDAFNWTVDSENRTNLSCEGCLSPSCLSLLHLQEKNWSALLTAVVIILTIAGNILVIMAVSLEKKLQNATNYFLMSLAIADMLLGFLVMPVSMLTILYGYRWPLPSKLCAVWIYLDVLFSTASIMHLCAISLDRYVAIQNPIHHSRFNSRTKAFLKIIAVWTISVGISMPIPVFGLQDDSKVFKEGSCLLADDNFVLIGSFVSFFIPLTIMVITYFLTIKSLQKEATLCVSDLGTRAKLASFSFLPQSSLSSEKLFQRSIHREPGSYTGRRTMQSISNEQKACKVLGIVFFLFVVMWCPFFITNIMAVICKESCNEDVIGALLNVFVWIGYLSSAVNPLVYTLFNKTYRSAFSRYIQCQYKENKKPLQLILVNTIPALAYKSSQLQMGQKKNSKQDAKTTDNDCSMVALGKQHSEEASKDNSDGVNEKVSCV
For the next assay, the target named is *1^A. As to conditions: Table 4; cited from earlier work.
[3] abbreviates: read-out: Ki (nM) 5-HT1A; Table 2; cited from earlier work.
The mark [4] stands for this setting: Table 3; read-out: IC50 (nM) 5-HT1A; cited from earlier work.
Where [5] appears, read: Table 2; read-out: Ki (nM) 5-HT1A; cited from earlier work.
Setting [6] is: read-out: Ki (nM) 5-HT1A; Table 4; cited from earlier work.

Read-outs that look alike come from different tables or passages of the source.

Sequence of D2 (P14416 whole entry): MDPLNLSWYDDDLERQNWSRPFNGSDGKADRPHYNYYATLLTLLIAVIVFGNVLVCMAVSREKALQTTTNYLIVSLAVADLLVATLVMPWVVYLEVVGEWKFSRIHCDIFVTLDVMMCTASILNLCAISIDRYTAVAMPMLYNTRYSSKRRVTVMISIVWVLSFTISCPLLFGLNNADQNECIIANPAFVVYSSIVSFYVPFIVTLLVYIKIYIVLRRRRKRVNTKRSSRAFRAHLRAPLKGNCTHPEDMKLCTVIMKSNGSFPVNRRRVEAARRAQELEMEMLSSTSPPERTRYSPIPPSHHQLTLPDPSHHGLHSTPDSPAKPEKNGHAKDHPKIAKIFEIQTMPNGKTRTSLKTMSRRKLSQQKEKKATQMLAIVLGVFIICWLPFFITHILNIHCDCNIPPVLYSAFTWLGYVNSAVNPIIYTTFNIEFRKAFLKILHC

Regarding `COc1ccccc1N1CCN(CC(C(=O)NC(C)(C)C)c2ccccc2)CC1` (racemic) [Compound Y (R)], the Ki (in general, the equilibrium dissociation constant of an inhibitor or competing ligand from its target) at D2 is 4 nM; at 5-HT1A (setting [3]), 104 nM; on a1 it was 1240 nM.
Take `COc1ccccc1N1CCN(CC(C(=O)NC(C)(C)C)c2ccccc2)CC1` (racemic) [Compound Y (S)]: the inhibition constant (Ki) was 20 nM on D2, 22 nM on 5-HT1A (setting [3]) and 1440 nM at a1.
`COc1ccccc1N1CCN(CC(C(=O)NC(C)(C)C)c2ccccc2)CC1` (racemic) [Compound Y (±)]: the Ki at D2 was 14 nM; on 5-HT1A (setting [3]), 20 nM; on a1, 718 nM.
Consider `COc1cc(N2CCN(C3CCN(c4ccc(F)c5c(OC)cc(C(F)(F)F)nc45)CC3)CC2)c2ncccc2c1` [5-fluoro-4-methoxy-8-(4-(4-(6-methoxyquinolin-8-yl)piperazin-1-yl)piperidin-1-yl)-2-(trifluoromethyl)quinoline], for which, in the assay with recognition memory [1], the “effect on the cognitive enhancing properties of Aricept in the Novel Object Recognition Model” value is “synergistic effect”.
On to `COc1cc(N2CCN(C3CCN(c4ccc(F)c5cccnc45)CC3)CC2)c2ncccc2c1` [5-fluoro-8-(4-(4-(6-methoxyquinolin-8-yl)piperazin-1-yl)piperidin-1-yl)quinoline], for which, in the assay on recognition memory [1], the “effect on the cognitive enhancing properties of Aricept in the Novel Object Recognition Model” value was “synergistic effect”.
For the compound `COc1cc2c(cc1OC)C(=O)C(CC1CCN(Cc3ccccc3)CC1)C2` (stereo not shown) [Aricept®, donepezil], the “exploration time (FIG. 1)” value with recognition memory [2] was “relatively similar”. Moreover, the “contact times familiar vs novel, administered separately” value with recognition memory [1] (sub-threshold doses: Aricept 0.5 mg/kg i.p. or 5-HT1A antagonist 0.1 mg/kg p.o., 48 hour inter-trial interval) was “not statistically different”.
Take `O=c1ccc(=O)n(-c2ccccc2)n1CCCCN1CCN(c2cccc(Cl)c2)CC1` [Compound 104]: the Ki at 5-HT2A was 1830 nM.
With `COc1ccccc1N1CCN(CCCn2c(=O)ccc(=O)n2-c2ccccc2)CC1` [Compound 105], the Ki on 5-HT2A is 2120 nM.
Turning to `COc1ccccc1N1CCN(CCCCn2c(=O)ccc(=O)n2-c2ccccc2)CC1` [Compound 106], the Ki at 5-HT2A is 1450 nM; on 5-HT1A (read-out: Ki (nM) 5-HT1A; Table 1; cited from earlier work) it was 51 nM.
In the case of `OC1(c2ccc3c(c2)OCO3)CCC(N2CCN(Cc3ccccc3)CC2)CC1` (stereo not shown) [Compound 112], on 5-HT1A (setting [4]), the IC50 (in general, the point on the concentration scale where inhibition reaches its midpoint) is 20 nM.
As for `COc1ccc(C2(O)CCC(N3CCN(Cc4ccccc4)CC3)CC2)cc1` (stereo not shown) [Compound 113], on 5-HT1A (setting [4]), the IC50 is 50 nM.
Take `COc1cccc(CN2CCN(C3CCC(O)(c4ccc5c(c4)OCO5)CC3)CC2)c1` (stereo not shown) [Compound 114]: the IC50 at 5-HT1A (setting [4]) is 2.2 nM.
Take `COc1ccccc1N1CCN(CC(C(=O)NC2CCCCC2)c2ccccc2)CC1` (stereo not shown) [Compound 118]: the values for the Ki on 5-HT1A (setting [3]) and on a1 were 10 nM and 1870 nM, respectively.
On to `O=C(C1CCCCC1)N(CN1CCN(c2ccccc2O)CC1)c1ccccn1` [Compound 119], for which the 50% inhibitory concentration (IC50) at 5-HT1A (Table 2, starred value; read-out: 5-HT1A, data expressed as IC50 value (*); cited from earlier work) is 2.1 nM.
Take `CS(=O)(=O)Oc1ccccc1N1CCN(CN(C(=O)C2CCCCC2)c2ccccn2)CC1` [Compound 122]: at 5-HT1A (setting [5]), the Ki was 7.25 nM.
On to `O=C(C1CCCCC1)N(CN1CCN(c2ccccc2OS(=O)(=O)C(F)(F)F)CC1)c1ccccn1` [Compound 123], for which the Ki on 5-HT1A (setting [5]) is 36 nM.
In the case of `COc1ccccc1N1CCN(CCN(C(=O)c2ccc(I)cc2)c2ccccn2)CC1` [Compound 124], the values for the Ki on D2, at 5-HT1A (setting [3]) and on a1 were 19 nM, 2.6 nM and 35 nM, respectively.
Consider `COc1ccccc1N1CCN(CCN(C(=O)c2cccc(I)c2)c2ccccn2)CC1` [Compound 125], for which the Ki at 5-HT1A (setting [5]) was 1.7 nM.
On to `COc1ccccc1N1CCN(CCN(C(=O)c2ccc(F)cc2)c2ccccn2)CC1` [Compound 127], for which the Ki at 5-HT1A (setting [5]) was 3.3 nM.
In the case of `COc1ccccc1N1CCN(CCCSc2nc3sc4c(c3c(=O)n2N)CCC4)CC1` [Compound 129], the values for the Ki at 5-HT1A (setting [6]) and at *1^A were 9.26 nM and 7.39 nM, respectively.
As for `COc1ccccc1N1CCN(CCCSc2nc(N)c3c(C)c(C)sc3n2)CC1` [Compound 135], the Ki at 5-HT1A (setting [6]) was 2.45 nM; at *1^A it was 10.8 nM.
In the case of `CCOc1ccccc1-c1nnc(SCCCN2CCN(c3ccccc3[N+](=O)[O-])CC2)s1` [Compound 137], the figures for the inhibition constant Ki at 5-HT1A (setting [6]) and on *1^A were 135 nM and 437 nM, respectively.
For the compound `C[C@H](CN(C(=O)C1CCCCC1)c1ccccn1)N1CCN(c2cccc3[nH]ccc23)CC1` [Compound 405, (R)-N-(2-methyl-(4-indolyl-1-piperazinyl)ethyl)-N-(2-pyridinyl)cyclohexane carboxamide], the “exploration time (FIG. 1)” value with recognition memory [2] was “relatively similar”.
As for `COc1ccccc1N1CCN(CN(C(=O)C2CCCCC2)c2ccccn2)CC1` [Compound X], the Ki on D2 was 79 nM; on 5-HT1A (setting [3]) it was 0.24 nM; at a1 it was 45 nM.
